Measured values as given in patent publication US20150080551A1, “LYSINE OLIGOMER DERIVATIVE AND CARTILAGE TISSUE MARKER MADE THEREOF” (NATIONAL UNIVERSITY CORPORATION OKAYAMA UNIVERSITY, priority 2012, published 2015).

Tests used:
[1] = test system: cartilage tissue (articular cartilage, distal end of a femur); experiment: Immersion of a distal end of a femur of a normal mouse in a cartilage tissue visualization reagent solution, ex vivo fluorescence microscopy; conditions: room temperature, 1 hour, GFP filter; for staining of cartilage (fluorescence signal, FIG. 2): 0.1 mM solution in saline; for staining of cartilage (fluorescence signal, FIG. 1): 0.1 mM solution in saline containing 25% ethanol
Protocol: Two normal C57B6/J strain mouse (8 week old, female) were prepared. The animals were euthanized by ether deep anesthesia and a distal end of a femur was excised. The sample was immersed in 100 μL of a 0.1 mM lysine oligomer derivative solution at room temperature for 1 hour. After 1 hour, the sample was washed twice with buffered saline. This was embedded in 4% CMC compound, frozen in hexane/liquid nitrogen, and cut into thin slices with a thickness of 7 μm using a tungsten carbide blade TC-65 (Leica) for a hard tissue slice and Cryofilm (Leica) in a cryostat without decalcification. The slice was thawed at room temperature for 10 sec, immersed in 100% ethanol for about 30 sec, stored in 4% paraformaldehyde (PFA) for a while, washed with tap water, and then subjected to fluorescence microscopy. An optical filer was a GFP filter. A lysine peptide was labeled with a fluorescence agent NBD, so that its signal was detected.
Here, a solvent of the solution of a lysine oligomer derivative was saline containing 25% ethanol. FIG. 1 is an enlarged image of an articular cartilage area in a sagittal plane of a knee joint in a distal end of a femur. The broken line indicates a tide-mark which is a boundary plane between a cartilage and a calcified cartilage layer.
Here, a solvent of the solution of a lysine oligomer derivative was saline. FIG. 2 is an enlarged image of an articular cartilage area in a sagittal plane of a knee joint in a distal end of a femur. […] For any of compounds 26 to 29, staining of a cartilage tissue was observed. However, staining of compound 26 containing only one lysine unit was slight. […] The white (green in a color photo) regions in the cartilage layer correspond to a part stained by a compound. Some of the circular regions (blue in a color photo) correspond to nuclear stain parts by Hoechst, which were also observed in the calcified layer.

SMILES	staining of cartilage (fluorescence signal, FIG. 2) [1]	staining of cartilage (fluorescence signal, FIG. 1) [1]	melting point [°C]
NCCCC[C@H](N)C(=O)NCCCC[C@H](N)C(=O)NCCCC[C@H](N)C(=O)NCCCC[C@H](N)C(=O)NCCNc1ccc([N+](=O)[O-])c2nonc12 [Compound 28]	further strongly stained	–	–
N=C(N)NCCNc1c(I)cc(C(=O)NCCCC[C@H](NC(=O)c2cc(I)c(NCCNC(=N)N)c(I)c2)C(=O)NCCCC[C@H](NC(=O)c2cc(I)c(NCCNC(=N)N)c(I)c2)C(=O)NCCCC[C@H](NC(=O)c2cc(I)c(NCCNC(=N)N)c(I)c2)C(=O)NCCNc2ccc([N+](=O)[O-])c3nonc23)cc1I [Compound 42]	–	Staining was observed in the cartilage tissue	189.4 to 191.5
NCCCC[C@H](N)C(=O)NCCCC[C@H](N)C(=O)NCCCC[C@H](N)C(=O)NCCCC[C@H](N)C(=O)NCCCC[C@H](N)C(=O)NCCNc1ccc([N+](=O)[O-])c2nonc12 [Compound 29]	further strongly stained	–	–
NCCNc1c(I)cc(C(=O)NCCCC[C@H](NC(=O)c2cc(I)c(NCCN)c(I)c2)C(=O)NCCCC[C@H](NC(=O)c2cc(I)c(NCCN)c(I)c2)C(=O)NCCCC[C@H](NC(=O)c2cc(I)c(NCCN)c(I)c2)C(=O)NCCNc2ccc([N+](=O)[O-])c3nonc23)cc1I [Compound 43]	–	staining was confined to the surface tissue	192.9 to 195.7
NCCCC[C@H](N)C(=O)NCCCC[C@H](N)C(=O)NCCCC[C@H](N)C(=O)NCCNc1ccc([N+](=O)[O-])c2nonc12 [Compound 27]	adequately stained	Staining was observed in the cartilage tissue	183.3 to 184.7
NCCCC[C@H](N)C(=O)NCCNc1ccc([N+](=O)[O-])c2nonc12 [Compound 26]	slight	–	151.4 to 153.9
